Experimental data as given in publication PMC2994747, “Molecular Characterization of c-Abl/c-Src Kinase Inhibitors Targeted against Murine Tumour Progenitor Cells that Express Stem Cell Markers” (PLoS ONE, 2010).
Counter-ions that a name gives are not always drawn. Like-named read-outs stand apart in the source and are kept apart here.

Legend:
c-Abl = biological target: T1, c-Abl (Homo sapiens, UniProt P00519); assay: Abl filter-binding kinase assay (Abtide, [γ-32P]ATP); assay type: biochemical; conditions: isolated Abl; calculated from ID50, ATP-competitive; E0 0.005, S0 0.012 µM
T1 construct: His tag; purchased Upstate (Lake Placid, NY, USA)
T1 sequence (P00519 whole entry): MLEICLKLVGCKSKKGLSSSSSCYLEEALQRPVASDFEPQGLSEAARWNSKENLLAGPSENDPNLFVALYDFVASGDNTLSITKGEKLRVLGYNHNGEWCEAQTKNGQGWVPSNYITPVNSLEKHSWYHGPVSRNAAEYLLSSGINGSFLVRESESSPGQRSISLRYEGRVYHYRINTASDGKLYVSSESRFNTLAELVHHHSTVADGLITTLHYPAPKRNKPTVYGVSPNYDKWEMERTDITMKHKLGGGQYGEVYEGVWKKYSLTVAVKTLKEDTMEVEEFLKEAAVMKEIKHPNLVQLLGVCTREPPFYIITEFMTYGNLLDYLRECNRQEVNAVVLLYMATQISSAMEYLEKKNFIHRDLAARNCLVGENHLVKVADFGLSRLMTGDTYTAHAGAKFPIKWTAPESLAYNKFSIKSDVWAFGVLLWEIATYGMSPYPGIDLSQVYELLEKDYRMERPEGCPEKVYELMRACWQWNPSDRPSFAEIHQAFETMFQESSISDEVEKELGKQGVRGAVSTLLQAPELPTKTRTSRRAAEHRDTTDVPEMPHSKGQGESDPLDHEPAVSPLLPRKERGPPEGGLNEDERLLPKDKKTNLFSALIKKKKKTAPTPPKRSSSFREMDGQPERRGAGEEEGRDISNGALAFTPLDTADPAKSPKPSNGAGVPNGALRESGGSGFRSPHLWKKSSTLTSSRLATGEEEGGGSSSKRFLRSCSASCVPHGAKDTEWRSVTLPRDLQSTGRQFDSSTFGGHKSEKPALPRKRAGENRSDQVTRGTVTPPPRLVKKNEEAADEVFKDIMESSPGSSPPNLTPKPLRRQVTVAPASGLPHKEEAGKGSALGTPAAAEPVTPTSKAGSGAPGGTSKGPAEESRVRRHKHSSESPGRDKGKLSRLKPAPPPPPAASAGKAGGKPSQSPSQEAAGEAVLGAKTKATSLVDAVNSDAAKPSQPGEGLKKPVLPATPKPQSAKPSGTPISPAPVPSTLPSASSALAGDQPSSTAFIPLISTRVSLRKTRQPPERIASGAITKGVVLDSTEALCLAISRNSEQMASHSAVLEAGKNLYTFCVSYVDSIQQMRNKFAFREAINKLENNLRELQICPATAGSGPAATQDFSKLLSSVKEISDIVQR
Protocol: (§1) Baculovirus-produced recombinant purified his-tagged active against human Src and Abl were purchased from Upstate (Lake Placid, NY, USA).
(§2) Src activity was measured in a filter-binding assay using the Src Assay Kit (Upstate, Lake Placid, NY, USA), according to the manufacturer's protocol, using the specific Src peptide substrate [[…]] in the presence of 0.125 pmol of Src and 0.160 pmol of [γ-^32P]ATP. Abl activity was measured in a filter-binding assay using an Abl specific peptide substrate (Abtide, Upstate). Reaction conditions were (in a final volume of 10 µl): 25 mM Tris-HCl pH 7.5, 1 mM DTT, 0.012 µM [γ-^32P]ATP, 0.022 µM c-Abl. Reactions were incubated 10 min at 30°C.The samples (9 µl) were spotted on paper cellulose filters which were washed according to the manufacturer's protocol. Filter-bound radioactivity was measured by liquid scintillation with a Microbeta-Trilux apparatus (PerkinElmer, Waltham, MA, USA).
(§3) The ID50 were converted to Ki according to a competitive mechanism with respect to the substrate ATP. […] Since (i) the ATP concentration was limiting, i.e., [ATP], Km(ATP), and (ii) the enzyme concentration was not negligible with respect to the ATP concentration, the classical Cheng-Prusoff relationship was not applicable. Consequently, Ki values were calculated according to [drawing 3] (2) where S0 is the concentration of the competing substrate (ATP) and E0 is the concentration of the enzyme. Each experiment was done in triplicate and mean values were used for the interpolation. Curve fitting was performed with the program GraphPad Prism.

c-Src = biological target: T2, c-Src (Homo sapiens, UniProt P12931); assay: Src filter-binding kinase assay (Src Assay Kit); assay type: biochemical; conditions: isolated Src; calculated from ID50, ATP-competitive; E0 0.005, S0 0.012 µM
T2 construct: His tag; purchased Upstate (Lake Placid, NY, USA)
T2 sequence (P12931 whole entry): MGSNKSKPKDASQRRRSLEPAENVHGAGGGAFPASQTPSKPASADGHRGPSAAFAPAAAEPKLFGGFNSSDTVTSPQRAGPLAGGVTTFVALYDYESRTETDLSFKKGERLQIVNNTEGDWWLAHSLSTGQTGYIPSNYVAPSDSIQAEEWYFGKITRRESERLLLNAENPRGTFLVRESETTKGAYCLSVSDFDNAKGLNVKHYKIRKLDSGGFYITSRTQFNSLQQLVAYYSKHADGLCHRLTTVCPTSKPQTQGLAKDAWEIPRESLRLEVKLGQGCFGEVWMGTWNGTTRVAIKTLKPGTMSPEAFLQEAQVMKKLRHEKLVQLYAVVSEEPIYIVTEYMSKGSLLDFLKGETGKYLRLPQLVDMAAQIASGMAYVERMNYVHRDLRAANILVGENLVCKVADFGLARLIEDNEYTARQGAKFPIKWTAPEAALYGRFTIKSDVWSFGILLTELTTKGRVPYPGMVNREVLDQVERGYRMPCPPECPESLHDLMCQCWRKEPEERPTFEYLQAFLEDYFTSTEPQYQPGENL
Protocol: as §1, §2, §3

A2C12 [1] = assay: MTS cell viability assay; assay type: cell-based, mouse; conditions: Mus musculus
Protocol: (§4) Three human and eleven murine cancer cell lines were used. The human NSCLC cell line A549 (ACC 107) and the human colorectal carcinoma cell line CaCo2 (ACC 169) were obtained from Deutsche Sammlung von Mikroorganismen und Zellkulturen (DSMZ, Braunschweig, Germany). The human hepatocellular carcinoma cell line HepG2 (HB-8065) was obtained from American Type Culture Collection (Manassas, VA, USA). The 11 murine NSCLC cell lines were established as described recently. Cells were grown in monolayer cultures in DMEM containing 10% foetal calf serum, 4 mmol/l L-glutamine and 2% Penicillin/Streptomycin at 37°C in a humidified atmosphere of 95% air and 5% CO2.
(§5) Cell culture viability was monitored by CellTiter96® AQueous One Solution Cell Proliferation Assay (Promega GmbH, Mannheim, Germany). The cells were seeded in triplicates in 96-well microtitre plates and treated with the dual kinase inhibitors or vehicle (0.2% DMSO). After 24 h or 96 h of treatment the MTS tetrazolium reagent was added to the cells and incubated for 1 h. Absorbance at 490 nm was assayed with a Victor3 Wallac 1420 Multilabel counter (PerkinElmer, Waltham, MA, USA).

BetaD5 [2] = assay: MTS cell viability assay; assay type: cell-based, mouse; conditions: Mus musculus
Protocol: as §4, §5

GammaA3 [3] = assay: MTS cell viability assay; assay type: cell-based, mouse; conditions: Mus musculus
Protocol: as §4, §5

GammaD12 [4] = assay: MTS cell viability assay; assay type: cell-based, mouse; conditions: Mus musculus, MTS
Protocol: as §4, §5

A549 [5] = assay: MTS cell viability assay; assay type: cell-based, human; conditions: Homo sapiens
Protocol: as §4, §5

CaCo2 [6] = assay: MTS cell viability assay; assay type: cell-based, human; conditions: Homo sapiens
Protocol: as §4, §5

HepG2 [7] = assay: MTS cell viability assay; assay type: cell-based, human; conditions: Homo sapiens
Protocol: as §4, §5

A2C12 [8] = assay: Cell cycle analysis by flow cytometry; assay type: cell-based, mouse; conditions: IC50 concentration, 96 h
Protocol: (§6) CycleTEST™ PLUS DNA Reagent Kit (Becton Dickinson GmbH, Heidelberg, Germany) for cell cycle analysis was used, according to the instructions of the manufacturer. Briefly, the cells were harvested with trypsin, washed with PBS, and resuspended in CycleTEST Buffer. The cells were centrifuged and resuspended in solution A. After incubation for 10 min at room temperature, solution B was added and incubated. After adding solution C, the samples were incubated at 4°C protected from light. The samples were stored on ice and protected from light until analysis by FACScan flow cytometer (Becton Dickinson GmbH, Heidelberg, Germany).

BetaD5 [9] = assay: Cell cycle analysis by flow cytometry; assay type: cell-based, mouse; conditions: IC50 concentration, 96 h
Protocol: as §6

GammaA3 [10] = assay: Cell cycle analysis by flow cytometry; assay type: cell-based, mouse; conditions: IC50 concentration, 96 h
Protocol: as §6

GammaD12 [11] = assay: Cell cycle analysis by flow cytometry; assay type: cell-based, mouse; conditions: IC50 concentration, 96 h
Protocol: as §6

A549 [12] = assay: Cell cycle analysis by flow cytometry; assay type: cell-based, human; conditions: IC50 concentration, 96 h
Protocol: as §6

CaCo2 [13] = assay: Cell cycle analysis by flow cytometry; assay type: cell-based, human; conditions: IC50 concentration, 96 h
Protocol: as §6

HepG2 [14] = assay: Cell cycle analysis by flow cytometry; assay type: cell-based, human; conditions: IC50 concentration, 96 h
Protocol: as §6

leukaemia cells = conditions: cited from earlier work
[15] = 24 h, read-out: Calculated IC50 after single treatment for 24 h
[16] = 96 h, read-out: Calculated IC50 after daily treatment for 96 h

CC(C)Sc1nc(NCCc2ccccc2)c2cnn(CC(Cl)c3ccccc3)c2n1 (stereo not drawn) [Si142]
Ki (c-Abl): 0.12 µM | Ki (c-Src): 2 µM | IC50 (A2C12 [1]; [15]): 40.4 ± 2.1 µM | IC50 (A2C12 [1]; [16]): 5.3 ± 0.2 µM | IC50 (BetaD5 [2]; [15]): 11 ± 0.7 µM | IC50 (BetaD5 [2]; [16]): 8.7 ± 0.7 µM | IC50 (GammaA3 [3]; [15]): 18.7 ± 4 µM | IC50 (GammaA3 [3]; [16]): 7.1 ± 0.5 µM | IC50 (GammaD12 [4]; [15]): 11.8 ± 1.6 µM | IC50 (GammaD12 [4]; [16]): 7.7 ± 0.5 µM | IC50 (A549 [5]; A549, 24 h, 24 h, read-out: Calculated IC50 after single treatment for 24 h): > 100 µM | IC50 (A549 [5]; A549, 96 h, 96 h, read-out: Calculated IC50 after daily treatment for 96 h): 8.1 ± 0.7 µM | IC50 (CaCo2 [6]; Caco-2, 24 h, read-out: Calculated IC50 after single treatment for 24 h): 89.2 ± 4.6 µM | IC50 (CaCo2 [6]; Caco-2, 96 h, read-out: Calculated IC50 after daily treatment for 96 h): 6.8 ± 0.9 µM | IC50 (HepG2 [7]; [15]): 89.2 ± 4.6 µM | IC50 (HepG2 [7]; [16]): 16.9 ± 2.6 µM | Cells in G1 phase (A2C12 [8]): 71.3% | Cells in G2 phase (A2C12 [8]): 13.4% | Cells in S phase (A2C12 [8]): 15.3% | Cells in G1 phase (BetaD5 [9]): 53.6% | Cells in G2 phase (BetaD5 [9]): 25.8% | Cells in S phase (BetaD5 [9]): 20.6% | Cells in G1 phase (GammaA3 [10]): 67% | Cells in G2 phase (GammaA3 [10]): 15.5% | Cells in S phase (GammaA3 [10]): 17.5% | Cells in G1 phase (GammaD12 [11]): 33.7% | Cells in G2 phase (GammaD12 [11]): 6.6% | Cells in S phase (GammaD12 [11]): 59.7% | Cells in G1 phase (A549 [12]): 75.4% | Cells in G2 phase (A549 [12]): 2.2% | Cells in S phase (A549 [12]): 25.7% | Cells in G1 phase (CaCo2 [13]): 55.6% | Cells in G2 phase (CaCo2 [13]): 11.5% | Cells in S phase (CaCo2 [13]): 32.9% | Cells in G1 phase (HepG2 [14]): 53.5% | Cells in G2 phase (HepG2 [14]): 7.9% | Cells in S phase (HepG2 [14]): 38.6% | melting point: 125 to 126 °C

Cc1ccc(NC(=O)c2ccc(CN3CCN(C)CC3)cc2)cc1Nc1nccc(-c2cccnc2)n1 [Imatinib, Imatinib mesylate]
Antiproliferative effect for leukaemia cells (leukaemia cells): submicromolar range
